Where a SMILES comes first, the peptide text is derived from it. Bridges are numbered along the chain shown (N, C = ends).
What was measured:
[1] = Blood pressure of anesthetized rats; format: in vivo; conditions: rat, 16 nmol/kg from jugular vein
Description: CRSP corresponding to an amount of 16 nmol/kg dissolved in a physiological saline solution was administered at a time within a short period from jugular vein of rat under an anesthetized condition and calcium concentration in the plasma and blood pressure were measured. The results are shown in FIG. 13 (changes in calcium concentration in blood by administration of CRSP) and FIG. 14 (changes in blood pressure by administration of CRSP).
CRSP corresponding to the amount of 16 nmol/kg dissolved in a physiological saline solution was administered at a time within short period from […] of rat under an anesthetized condition.

LLC-PK1 cells [2] = assay: cAMP production in LLC-PK1 cells (radioimmunoassay); format: cell-based, pig; conditions: ratio of ED50
Description: CRSP dissolved in DMEM was added to a medium for LLC-PK1 cells and amount of cAMP secreted therefrom was quantified by means of radioimmunoassay using a cAMP-specific antibody.
LLC-PK1 cells were incubated in a culture medium (a Dulbecco-modified Eagle medium (DMEM) containing 10% of fetal calf serum (FCS)), CRSP dissolved in DMEM containing 0.05% of bovine serum albumin was substituted for a culture medium for the cells after two days, incubation was conducted for 30 minutes, the medium was recovered and amount of the secreted cAMP was quantified by radioimmunoassay using a cAMP-specific antibody.

LLC-PK1 cells [3] = assay: Incorporation of calcium ion (45Ca) in LLC-PK1 cells; format: cell-based, pig; conditions: 10 minutes
Description: The results are shown in FIG. 5 (incorporation of sodium ion in the absence of EIPA), FIG. 6 (incorporation of sodium ion in the presence of EIPA) and FIG. 7 (incorporation of calcium ion).
Incorporation of calcium ion was conducted as follows. Thus, LLC-PK1 cells were washed with a Hanks' solution (calcium-free Hanks' solution) where concentration of calcium chloride was lowered to 0 mM. Calcium chloride (^45Ca) was added to a calcium-free Hanks' solution on the cells together with CRSP, the cells were washed after 10 minutes to completely wash out ^45Ca contained in the solution outside the cells and radioactivity incorporated into the cells was measured by a liquid scintillation counter.

LLC-PK1 cells [4] = assay: Suppression of cell proliferation (125I-DU incorporation, cell count); format: cell-based, pig; conditions: 125I-DU incorporation and cell count
Description: A solution of each peptide in DMEM in each concentration was added to LLC-PK1 cells, then DMEM (containing 0.1% BSA) which contained bromodeoxyuridine labeled with ^125I (^125I-DU) was added to each well and, after 5 hours, radioactivity incorporated into the nuclei was measured by a gamma-counter to measure the DNA amount synthesized as a result of cell proliferation.
With regard to the number of proliferated cells, each solution of CRSP in DMEM in various concentrations was added to LLC-PK1 cells of 10,000 cells/well, incubation was conducted, the cells on the incubation dish was taken out by a trypsin-EDTA solution and cell numbers were counted using a counting plate.
LLC-PK1 cells were incubated for two days in a DMEM (containing 10% of FCS) on a 24-well collagen plate, once washed with a DMEM and substituted with a DMEM (containing 10% of FCS) containing 0 and 10^−12 to 10^−6 M of CRSP followed by incubating. After 2 hours, a DMEM (containing 0.1% of BSA) containing ^125I-labeled bromodeoxyuridine was added to each well and, after 5 hours, radioactivity incorporated into the nuclei was measured by a gamma-counter whereupon the amount of DNA synthesized as a result of cell proliferation was measured.
Similarly, LLC-PK1 cells of 10,000 cells/well were sown on a 24-well collagen plate and incubated with a DMEM (containing 10% of FCS) for 24 hours. […]

[5] = biological target: T1, Pig calcitonin receptor (CTR) (Sus scrofa, UniProt P25117); assay: cAMP production in COS-7 cells expressing pig calcitonin receptor; format: cell-based
T1 construct: expressed in transfected cells; host or cells: COS-7 (given as rhesus monkey renal cells), vector pcDNA 3.1
T1 sequence (P25117 30-498): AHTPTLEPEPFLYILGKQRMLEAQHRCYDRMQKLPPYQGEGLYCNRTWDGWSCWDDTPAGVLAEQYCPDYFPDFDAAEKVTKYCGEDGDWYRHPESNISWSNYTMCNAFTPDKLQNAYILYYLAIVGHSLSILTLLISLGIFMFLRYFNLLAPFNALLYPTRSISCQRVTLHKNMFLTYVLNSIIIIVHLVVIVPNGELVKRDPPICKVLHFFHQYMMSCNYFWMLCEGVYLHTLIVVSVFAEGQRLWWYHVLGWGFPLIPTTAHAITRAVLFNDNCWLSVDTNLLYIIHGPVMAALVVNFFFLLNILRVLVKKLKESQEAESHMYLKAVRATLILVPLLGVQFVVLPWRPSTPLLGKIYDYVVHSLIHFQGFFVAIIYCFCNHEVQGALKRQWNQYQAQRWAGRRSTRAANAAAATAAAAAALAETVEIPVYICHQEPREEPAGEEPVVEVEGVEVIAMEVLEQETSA
Description: Pig calcitonin receptor (CTR) was introduced into a mammalian expression vector pcDNA 3.1, expressed in rhesus monkey renal cells (COS-7) and production amount of cAMP by stimulation of CRSP was measured by radioimmunoassay. Similarly, CTR was expressed in opossum renal cells (OK cells) and production amount of cAMP by stimulation of CRSP was measured by radioimmunoassay while incorporation of sodium ion was measured by measuring the incorporation of sodium chloride having radioactivity (^22Na) by a gamma-counter.
Pig calcitonin receptor (CTR) was introduced into mammalian expression vector pcDNA 3.1 and then expressed in rhesus monkey renal cells (COS-7) whereupon production amount of cAMP by CRSP stimulation was measured by radioimmunoassay.
Pig calcitonin receptor (CTR) was introduced into a mammalian expression vector pcDNA 3.1 and expressed in rhesus monkey renal cells (COS-7) and production amount of cAMP by CRSP stimulation was measured by radioimmunoassay.
Pig calcitonin receptor (CTR) was introduced into a mammalian expression vector pcDNA 3.1, then expressed in rhesus monkey renal cells (COS-7) and production amount of cAMP by CRSP or CRSP-Gly stimulation was measured-by radioimmunoassay.

SMILES: CSCC[C@H](NC(=O)[C@H](CCCCN)NC(=O)[C@@H](NC(=O)[C@@H]1CCCN1C(=O)[C@H](CC(C)C)NC(=O)[C@H](CC(C)C)NC(=O)[C@H](CC(N)=O)NC(=O)[C@H](CO)NC(=O)[C@H](CCCNC(=N)N)NC(=O)[C@@H](NC(=O)[C@H](CCSC)NC(=O)[C@H](CO)NC(=O)CNC(=O)[C@H](CO)NC(=O)[C@H](CCCNC(=N)N)NC(=O)[C@H](CO)NC(=O)[C@H](CC(C)C)NC(=O)[C@H](CC(C)C)NC(=O)CNC(=O)[C@@H](NC(=O)[C@H](CC(C)C)NC(=O)[C@H](CCCNC(=N)N)NC(=O)[C@H](Cc1c[nH]cn1)NC(=O)[C@@H](NC(=O)[C@H](CCSC)NC(=O)[C@@H]1CSSC[C@H](NC(=O)[C@@H](N)CO)C(=O)N[C@@H](CC(N)=O)C(=O)N[C@@H]([C@@H](C)O)C(=O)N[C@@H](C)C(=O)N[C@@H]([C@@H](C)O)C(=O)N1)[C@@H](C)O)C(C)C)C(C)C)[C@@H](C)O)C(=O)NCC(=O)N[C@@H](Cc1ccccc1)C(=O)N[C@@H](CCCCN)C(=O)N[C@H](C(=O)N[C@@H](Cc1ccccc1)C(=O)NCC(N)=O)C(C)C [CRSP] (H-SCNTATCMTHRLVGLLSRSGSMVRSNLLPTKMGFKVFG-NH2; disulfide 2-7)
- blood pressure [1]: no apparent change
- activity stronger than pig CGRP (LLC-PK1 cells [2]): about 40 fold
- activity stronger than pig calcitonin (LLC-PK1 cells [2]): about 6 fold
- incorporation of calcium into cells (LLC-PK1 cells [3]): suppressed
- growth of LLC-PK1 cells (LLC-PK1 cells [4]): suppressing the growth of LLC-PK1 cells
- cAMP productivity, CRSP compared with CRSP-Gly ([5]; CTR expressed in COS-7): nearly the same cAMP productivity
- activity stronger than pig calcitonin ([5]; CTR expressed in COS-7, ratio of ED50): about 350 fold
- EC50 ([5]; CTR expressed in COS-7, read-out: ED50, increase of intracellular adenylyl cyclase activity (cAMP production)): ~0.2 nM
